Here are results for 29 molecules from US5344831A, “Diazabicyclo derivatives” (Nisshin Flour Milling Co., Ltd., priority 1992, dated 1994).

Counter-ions that a name gives are not always drawn.

This test relates to 5-HT3 receptors. The experiment in a line: antagonism of the von Bezold-Jarisch reflex (bradycardia) induced by 5-HT in the anaesthetised rat. Particulars: 5-HT 30 μg/kg given 5 min later, tested as hydrochloride salts. Type of test: in vivo. As for the experimental part:
Temporary bradycardia is induced by administration of 5-HT (serotonin) to anaesthetised rats via jugular vein (yon Bezold Jarisch Reflex) (A. S. Paintal, Physiol. Rev., 53, 159-210 (1973 ) ).
The compounds of the present invention were evaluated for antagonism of the yon Bezold-Jarisch reflex induced by 5-HT in the anaesthetised rat according to the following method.
Rats were anaesthetised with urethane (1 g/kg, intraperitoneally ) and blood pressure and heart rate recorded from left femoral artery. Percent inhibition was calculated from bradycardia induced by 5-HT (30 μg/kg ) given 5 minutes following intrajugular administration of a compound of the invent ion, taking the bradycardia induced by the intrajugular administration of 5-HT. The compounds of the present invention were tested in the form of their hydrochloride salts.

On to `C=CCn1nc(C(=O)N[C@@H]2C[C@@H]3CN(C)C[C@H](C2)N3C)c2ccccc21` [Example 2, endo-3,9-Dimethyl-3,9-diazabicyclo[3.3.1]non-7-yl 1-allylindazole-3-carboxamide hydrochloride], for which the “Percent Inhibition” value (0.01 μg/kg i.v.) was 11% and the “Percent Inhibition” value (0.1 μg/kg i.v.) stood at 86%.
In the case of `CN1C[C@H]2C[C@@H](NC(=O)c3nn(CC4CCCCC4)c4ccccc34)C[C@@H](C1)N2C` [Example 3, endo-3,9-Dimethyl-3,9-diazabicyclo[3.3.1]non-7-yl 1-cyclohexylmethylindazole-3-carboxamide], the “Percent Inhibition” value is, setting by setting: (0.1 μg/kg i.v.) 13%; (1.0 μg/kg i.v.) 70%.
Consider `CN1C[C@H]2C[C@@H](NC(=O)c3nn(CC4CC4)c4ccccc34)C[C@@H](C1)N2C` [Example 4], for which the “Percent Inhibition” value (0.1 μg/kg i.v.) is 60%.
On to `COc1ccc(Cn2nc(C(=O)N[C@@H]3C[C@@H]4CN(C)C[C@H](C3)N4C)c3ccccc32)cc1` [Example 5], for which the “Percent Inhibition” value by setting is: (0.1 μg/kg i.v.) 29%; (1.0 μg/kg i.v.) 44%; (10 μg/kg i.v.) 91%.
As for `C=CCCCCCCn1nc(C(=O)N[C@@H]2C[C@@H]3CN(C)C[C@H](C2)N3C)c2ccccc21` [Example 6, endo-3,9-Dimethyl-3,9-diazabicyclo[3.3.1]non-7-yl 1-(7octenyl) indazole-3-carboxamide], the “Percent Inhibition” value by setting is: (0.1 μg/kg i.v.) 19%; (1.0 μg/kg i.v.) 35%; (10 μg/kg i.v.) 87%.
In the case of `C#CCn1nc(C(=O)N[C@@H]2C[C@@H]3CN(C)C[C@H](C2)N3C)c2ccccc21` [Example 7, endo-3,9-Dimethyl-3,9-diazabicyclo[3.3-1]non-7-Yl 1-(2propynyl) indazole-3-carboxamide], the “Percent Inhibition” value by setting is: (0.1 μg/kg i.v.) 30%; (1.0 μg/kg i.v.) 83%.
`CC(C)=CCn1nc(C(=O)N[C@@H]2C[C@@H]3CN(C)C[C@H](C2)N3C)c2ccccc21` [Example 8, endo-3,9-Dimethyl-3,9-diazabicyclo[3.3.1]non-7-yl 1-(3-methyl-2-butenyl) indazole-3-carboxamide]: the “Percent Inhibition” value is listed as 48% (0.1 μg/kg i.v.) and 100% (1.0 μg/kg i.v.).
Take `CN1C[C@H]2C[C@@H](NC(=O)c3nn(Cc4ccc([N+](=O)[O-])cc4)c4ccccc34)C[C@@H](C1)N2C` [Example 9, endo-3,9-Dimethyl-3,9-diazabicyclo[3.3.1]non-7-yl 1-(4nitrobenzyl) indazole-3-carboxamide]: the “Percent Inhibition” value by setting is: (0.01 μg/kg i.v.) 14%; (0.1 μg/kg i.v.) 41%; (1.0 μg/kg i.v.) 96%.
Turning to `CN1C[C@H]2C[C@@H](NC(=O)c3nn(CC#N)c4ccccc34)C[C@@H](C1)N2C` [Example 10, endo-3,9-Dimethyl-3,9-diazabicyclo[3.3.1]non-7-yl 1-cyanomethylindazole-3-carboxamide], the “Percent Inhibition” value (0.1 μg/kg i.v.) is 37% and the “Percent Inhibition” value (1.0 μg/kg i.v.) is recorded as 100%.
Consider `CN1C[C@H]2C[C@@H](NC(=O)c3nn(Cc4ccc(C(C)(C)C)cc4)c4ccccc34)C[C@@H](C1)N2C` [Example 11, endo-3,9-Dimethyl-3,9-diazabicyclo[3.3.1]non-7-yl 1-(4-tert-butylbenzyl) indazole-3-carboxamide], for which the “Percent Inhibition” value is, setting by setting: (0.1 μg/kg i.v.) 39%; (1.0 μg/kg i.v.) 53%.
As to `CC(=O)Cn1nc(C(=O)N[C@@H]2C[C@@H]3CN(C)C[C@H](C2)N3C)c2ccccc21` [Example 12, endo-3,9-Dimethyl-3,9-diazabicyclo[3.3.1]non-7-yl 1-(2-oxopropyl) indazole-3-carboxamide], the “Percent Inhibition” value reads like this: (0.01 μg/kg i.v.) 45%; (0.1 μg/kg i.v.) 57%; (1.0 μg/kg i.v.) 72%.
Turning to `CN1C[C@H]2C[C@@H](NC(=O)c3nn(Cc4cccc(Cl)c4)c4ccccc34)C[C@@H](C1)N2C` [Example 13, endo-3,9-Dimethyl-3,9-diazabicyclo[3.3.1]non-7-yl 1-(3-chlorobenzyl)indazole-3-carboxamide], the “Percent Inhibition” value (0.1 μg/kg i.v.) turned out to be 27% and the “Percent Inhibition” value (1.0 μg/kg i.v.) is listed as 71%.
As to `CN1C[C@H]2C[C@@H](NC(=O)c3nn(Cc4ccccc4[N+](=O)[O-])c4ccccc34)C[C@@H](C1)N2C` [Example 14, endo-3,9-Dimethyl-3,9-diazabicyclo[3.3.1]non-7-yl 1-(2-nitrobenzyl) indazole-3-carboxamide], the “Percent Inhibition” value was 18% (0.1 μg/kg i.v.) and 97% (1.0 μg/kg i.v.).
With `CN1C[C@H]2C[C@@H](NC(=O)c3nn(Cc4ccccn4)c4ccccc34)C[C@@H](C1)N2C` [Example 15, endo-3,9-Dimethyl-3,9-diazabicyclo[3.3.1]non-7-yl 1-(2-pyridylmethyl) indazole-3-carboxamide], the “Percent Inhibition” value (0.1 μg/kg i.v.) came to 47%.
As for `COC(=O)Cn1nc(C(=O)N[C@@H]2C[C@@H]3CN(C)C[C@H](C2)N3C)c2ccccc21` [Example 16, endo-3,9-Dimethyl-3,9-diazabicyclo[3.3.1]non-7-yl 1-methoxycarbonylmethylindazole-3-carboxamide], the “Percent Inhibition” value reads like this: (0.1 μg/kg i.v.) 34%; (10 μg/kg i.v.) 88%.
With `CCOCCn1nc(C(=O)N[C@@H]2C[C@@H]3CN(C)C[C@H](C2)N3C)c2ccccc21` [Example 17, endo-3,9-Dimethyl-3,9-diazabicyclo[3.3.1]non-7-yl 1-ethoxyethylindazole-3-carboxamide], the “Percent Inhibition” value amounted to 33% (0.01 μg/kg i.v.) and 53% (0.1 μg/kg i.v.).
`CC(C)COC(=O)n1nc(C(=O)N[C@@H]2C[C@@H]3CN(C)C[C@H](C2)N3C)c2ccccc21` [Example 18, endo-3,9-Dimethyl-3,9-diazabicyclo[3.3.1]non-7-yl 1-isobutoxycarbonylindazole-3-carboxamide]: the “Percent Inhibition” value (0.1 μg/kg i.v.) is reported as 23% and the “Percent Inhibition” value (1.0 μg/kg i.v.) worked out at 53%.
As for `CC(O)Cn1nc(C(=O)N[C@@H]2C[C@@H]3CN(C)C[C@H](C2)N3C)c2ccccc21` (stereo partly drawn) [Example 19, endo-3,9-Dimethyl-3,9-diazabicyclo[3.3.1]non-7-yl 1-(2hydroxypropyl) indazole-3-carboxamide], the “Percent Inhibition” value was 40% (0.01 μg/kg i.v.) and 59% (0.1 μg/kg i.v.).
The corresponding values for `CN1C[C@H]2C[C@@H](NC(=O)c3nn(Cc4ccc(N)cc4)c4ccccc34)C[C@@H](C1)N2C` [Example 20, endo-3,9-Dimethyl-3,9-diazabicyclo[3.3.1]non-7-yl 1-(4aminobenzyl) indazole-3-carboxamide] are 51% and 73%.
Turning to `CN1C[C@H]2C[C@@H](NC(=O)c3nn(Cc4nc(N)nc(N)n4)c4ccccc34)C[C@@H](C1)N2C` [Example 21], the “Percent Inhibition” value runs as follows: (0.01 μg/kg i.v.) 21%; (0.1 μg/kg i.v.) 38%; (1.0 μg/kg i.v.) 85%.
For the molecule `CN1[C@@H]2C[C@@H](NC(=O)c3n[nH]c4ccccc34)C[C@H]1CN(Cc1ccccc1)C2` [Example 22, endo-3-Benzyl-9-methyl-3,9-diazabicyclo[3.3.1]non-7-yl 1H-indazole-3-carboxamide], the “Percent Inhibition” value is, setting by setting: (0.1 μg/kg i.v.) 48%; (1.0 μg/kg i.v.) 87%.
`CN1[C@@H]2CNC[C@H]1C[C@@H](NC(=O)c1n[nH]c3ccccc13)C2` [Example 23, endo-9-Methyl-3,9-diazabicyclo[3.3.1]non-7-yl 1H-indazole-3-carboxamide]: the “Percent Inhibition” value (0.1 μg/kg i.v.) stood at 28% and the “Percent Inhibition” value (1.0 μg/kg i.v.) came out at 82%.
For the molecule `CN1C[C@H]2C[C@@H](NC(=O)c3n[nH]c4ccccc34)C[C@@H](C1)N2Cc1ccccc1` [Example 24, endo-9-Benzyl-3-methyl-3,9-diazabicyclo[3.3.1]non-7-yl 1H-indazole-3-carboxamide], the “Percent Inhibition” value (0.1 μg/kg i.v.) was 35%.
In the case of `CN1C[C@H]2C[C@@H](NC(=O)c3n[nH]c4ccccc34)C[C@@H](C1)N2` [Example 25, endo-3-Methyl-3,9-diazabicyclo[3.3.1]non-7-yl 1H-indazole-3-carboxamide], where the note is “0.1 μg/kg i.v.”, the “Percent Inhibition” value is given as 21%.
Take `C=CCN1C[C@H]2C[C@@H](NC(=O)c3n[nH]c4ccccc34)C[C@@H](C1)N2C` [Example 26, endo-3-Allyl-9-methyl-3,9-diazabicyclo[3.3.1]non-7-yl 1H-indazole-3-carboxamide]: the “Percent Inhibition” value (0.1 μg/kg i.v.) is listed as 38%.
On to `CN1[C@@H]2C[C@@H](NC(=O)c3n[nH]c4ccccc34)C[C@H]1CN(Cc1ccc(F)cc1)C2` [Example 27, endo-3-(4-Fluorobenzyl)-9-methyl-3,9-diazabicyclo[3.3.1]non-7-yl 1H-indazole-3-carboxamide], for which the “Percent Inhibition” value is 75% (0.1 μg/kg i.v.) and 98% (1.0 μg/kg i.v.).
Take `CC(=O)N1C[C@H]2C[C@@H](NC(=O)c3n[nH]c4ccccc34)C[C@@H](C1)N2C` [Example 28, endo-3-Acetyl-9-methyl-3,9-diazabicyclo[3.3.1]non-7-yl 1H-indazola-3-carboxamide]: the “Percent Inhibition” value reads like this: (0.1 μg/kg i.v.) 23%; (1.0 μg/kg i.v.) 71%.
With `CC(C)CN1C[C@H]2C[C@@H](NC(=O)c3n[nH]c4ccccc34)C[C@@H](C1)N2C` [Example 29, endo-3-Isobutyl-9-methyl-3,9-diazabicyclo[3.3.1]non-7-yl 1H-indazole-3-carboxamide], the “Percent Inhibition” value came out at 27% (0.01 μg/kg i.v.) and 81% (0.1 μg/kg i.v.).
`CCOCCN1C[C@H]2C[C@@H](NC(=O)c3n[nH]c4ccccc34)C[C@@H](C1)N2C` [Example 30, endo-3-(2-Ethoxyethyl)-9-methyl-3,9-diazabicyclo[3.3.1]non-7-yl 1H-indazole-3-carboxamide]: the “Percent Inhibition” value stood at 52% (0.1 μg/kg i.v.) and 100% (1.0 μg/kg i.v.).
